IC50 and inhibition in vivo data for four compounds are collected here from ChEMBL document CHEMBL1150548, “Dopamine autoreceptor agonists: computational studies, synthesis and biological investigations” (Bioorg Med Chem Lett, 1993).

Assay [1] addresses T1, D(2) dopamine receptor (Rattus norvegicus, UniProt P61169). In words: Compound was evaluated for binding affinity to Dopamine receptor D2 labeled with [3H]-SND 919 (0.5 nM) in rat striatal membranes. It counts as cell membranes, Striatum, Membrane.
A further assay deals with D(1A) dopamine receptor (Rattus norvegicus, UniProt P18901). The experiment in a line: Compound was evaluated for binding affinity to Dopamine receptor D1 labeled with [3H]-SCH- 23390 (0.3 nM) in rat striatal membranes. It is filed as cell membranes, Striatum, Membrane.
Assay [2] has as its target T1, D(2) dopamine receptor. The experiment in a line: Compound was evaluated for binding affinity to Dopamine receptor D2 labeled with [3H]spiroperidol (0.5 nM) in rat striatal membranes. It counts as cell membranes, Striatum, Membrane.
For assay [3], the system named is Mus musculus. In words: Compound was evaluated for agonistic activity (DA receptor) by inhibition of GBL (gamma-butyralactone)-induced L-Dopa accumulation at a dose of 10 mg/Kg. It is filed as functional.
The test system of assay [4] is Mus musculus. The experiment in a line: Compound was evaluated for agonistic activity (DA receptor) by inhibition of GBL (gamma-butyralactone)-induced L-Dopa accumulation at a dose 10 mg/kg. It counts as functional.

A word on the IC50: it is the concentration needed to halve the response being measured. A lower IC50 goes with greater potency in that assay. What is called inhibition in vivo is the share of the control response that was lost under treatment.

Chain of D(1A) dopamine receptor (P18901 whole entry): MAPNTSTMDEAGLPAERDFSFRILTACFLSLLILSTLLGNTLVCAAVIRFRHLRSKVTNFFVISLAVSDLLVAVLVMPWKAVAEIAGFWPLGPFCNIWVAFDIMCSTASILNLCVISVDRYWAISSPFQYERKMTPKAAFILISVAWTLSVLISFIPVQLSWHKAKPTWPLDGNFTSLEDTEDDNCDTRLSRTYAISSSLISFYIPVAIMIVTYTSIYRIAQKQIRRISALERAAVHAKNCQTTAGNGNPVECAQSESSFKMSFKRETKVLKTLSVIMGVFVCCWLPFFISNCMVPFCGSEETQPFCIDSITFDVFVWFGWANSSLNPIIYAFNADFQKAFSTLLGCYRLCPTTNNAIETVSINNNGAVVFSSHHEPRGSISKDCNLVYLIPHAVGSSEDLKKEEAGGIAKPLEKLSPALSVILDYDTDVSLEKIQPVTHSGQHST
T1 sequence (P61169 whole entry): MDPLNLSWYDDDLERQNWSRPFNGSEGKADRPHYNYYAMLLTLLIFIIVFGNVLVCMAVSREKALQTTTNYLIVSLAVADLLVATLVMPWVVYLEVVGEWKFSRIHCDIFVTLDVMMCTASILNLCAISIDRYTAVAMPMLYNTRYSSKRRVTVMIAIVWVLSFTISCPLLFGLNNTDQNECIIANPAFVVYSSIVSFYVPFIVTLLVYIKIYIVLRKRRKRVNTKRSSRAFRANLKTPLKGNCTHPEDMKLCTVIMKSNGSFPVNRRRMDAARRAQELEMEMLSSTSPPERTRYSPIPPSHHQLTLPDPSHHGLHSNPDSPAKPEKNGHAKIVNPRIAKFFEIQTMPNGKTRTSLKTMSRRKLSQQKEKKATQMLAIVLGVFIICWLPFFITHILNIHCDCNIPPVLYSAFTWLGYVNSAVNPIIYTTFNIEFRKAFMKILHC

As for `CCCN(CCC)C1Cc2cccn3ncc(c23)C1` (centres undefined), the IC50 is 0.26 µM at D(2) dopamine receptor [1], above 100 µM at D(1A) dopamine receptor and 50.4 µM on D(2) dopamine receptor [2]. For the same compound, in the assay on Mus musculus [3], at 10 mg/kg the inhibition in vivo was 57%.

For `NC1Cc2cccn3ncc(c23)C1` (centres undefined), the IC50 on D(2) dopamine receptor [1] was 2.8 µM; on D(1A) dopamine receptor it was above 100 µM; at D(2) dopamine receptor [2] it was above 100 µM.

`CCCNC1Cc2cccn3ncc(c23)C1` (centres undefined): the results for the IC50 at D(2) dopamine receptor [1], at D(1A) dopamine receptor and at D(2) dopamine receptor [2] were 2.7 µM, above 100 µM and above 100 µM, respectively.

Consider `CCCN(CCC)[C@H]1CCn2cccc2C1`, for which the results for the IC50 at D(2) dopamine receptor [1], at D(1A) dopamine receptor and on D(2) dopamine receptor [2] were 0.03 µM, 14.5 µM and 7.1 µM, respectively. In addition, in the assay with Mus musculus [4], at 10 mg/kg the inhibition in vivo was 62%.
